# Experimental data as given in BindingDB's records for patent US12065399 (Hoffmann-La Roche, 2024).
# pEC50: −log10 of the molar value.
# Molecular target: Metabotropic glutamate receptor 4 (Homo sapiens, UniProt Q14833)
# Experiment: Intracellular Ca2+ Mobilization Assay (FLIPR)
# Description: A monoclonal HEK-293 cell line stably transfected with a cDNA encoding for the human mGlu4 receptor was generated. Cells were cultured according to standard protocols (Freshney, 2000) in Dulbecco's Modified Eagle Medium with high glucose supplemented with 1 mM glutamine, 10% (vol/vol) heat-inactivated bovine calf serum, penicillin/streptomycin, 50 μg/ml hygromycin and 15 μg/ml blasticidin (all cell culture reagents and antibiotics from Invitrogen, Basel, Switzerland).About 24 hrs before an experiment, 5×10^4 cells/well were seeded in poly-D-lysine coated, black/clear-bottomed 96-well plates. The cells were loaded with 2.5 μM Fluo-4AM in loading buffer (1×HBSS, 20 mM HEPES) for 1 hr at 37° C. and washed five times with loading buffer. The cells were transferred into a Functional Drug Screening System 7000 (Hamamatsu, Paris, France), and 11 half logarithmic serial dilutions of test compound at 37° C. were added and the cells were incubated for 10-30 min. with on-line recording of fluorescence. […]
# Sequence of Metabotropic glutamate receptor 4 (Q14833 whole entry): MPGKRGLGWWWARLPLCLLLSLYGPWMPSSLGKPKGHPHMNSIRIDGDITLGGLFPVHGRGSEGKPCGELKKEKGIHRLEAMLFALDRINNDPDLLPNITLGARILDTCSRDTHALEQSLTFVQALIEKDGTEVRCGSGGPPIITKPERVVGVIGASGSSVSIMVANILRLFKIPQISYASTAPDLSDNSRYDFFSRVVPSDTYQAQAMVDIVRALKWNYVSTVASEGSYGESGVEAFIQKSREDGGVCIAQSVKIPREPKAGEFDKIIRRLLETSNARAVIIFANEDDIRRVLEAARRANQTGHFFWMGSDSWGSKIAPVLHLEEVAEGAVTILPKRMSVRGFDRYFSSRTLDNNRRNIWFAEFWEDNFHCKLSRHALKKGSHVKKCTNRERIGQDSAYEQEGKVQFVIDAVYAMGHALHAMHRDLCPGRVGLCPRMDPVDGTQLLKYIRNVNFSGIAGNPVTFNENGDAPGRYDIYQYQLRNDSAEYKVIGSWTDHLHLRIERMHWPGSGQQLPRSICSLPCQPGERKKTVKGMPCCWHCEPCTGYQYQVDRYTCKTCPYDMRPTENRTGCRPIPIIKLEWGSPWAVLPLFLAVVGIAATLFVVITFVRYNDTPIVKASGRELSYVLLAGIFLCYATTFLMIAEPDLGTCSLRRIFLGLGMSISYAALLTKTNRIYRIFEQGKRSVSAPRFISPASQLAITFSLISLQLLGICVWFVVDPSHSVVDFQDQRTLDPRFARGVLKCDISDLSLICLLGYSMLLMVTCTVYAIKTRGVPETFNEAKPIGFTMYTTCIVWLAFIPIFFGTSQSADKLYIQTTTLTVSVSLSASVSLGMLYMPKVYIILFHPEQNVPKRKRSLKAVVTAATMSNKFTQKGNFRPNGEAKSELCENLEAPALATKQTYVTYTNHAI
structure (smiles),measurement,value
"CC(C)(C)c1cnn(-c2cc(F)c(NS(=O)(=O)c3cccc(Cl)c3Cl)c(F)c2)c1 [US12065399, Example 59]",pEC50,5.03
